Source: US20250129064A1, “PRODRUGS OF 2-BROMO-LSD (2-BRO[…] DIETHYLAMIDE)” (Terran Biosciences Inc., priority 2022, published 2025)
“And” between values parts separate entries of the source, which are not always exact repeats. Equal entries are not always repeated.

Assay: Serial tail vein bleed PK study of 2-Br-LSD and 2-Br-LSD prodrugs in SD rats; 2-Br-LSD measured in plasma
Conditions: analyte 2-Br-LSD in plasma; for AUC(0-t): AUC0-last; for half-life: T½
[1] = 2-Br-LSD 1 mg/kg IV, male SD rat, individual animal
[2] = 2-Br-LSD 4 mg/kg oral, male SD rat, individual animal
[3] = male, Sprague-Dawley, rat, plasma, iv, 1 mg/kg, 2-Br-LSD 1 mg/kg IV, male SD rat, individual animal
[4] = male, Sprague-Dawley, rat, plasma, iv, 1 mg/kg, 2-Br-LSD 1 mg/kg IV, male SD rats, mean of 3
[5] = male, Sprague-Dawley, rat, plasma, po, 4 mg/kg, 2-Br-LSD 4 mg/kg oral, male SD rat, individual animal
[6] = male, Sprague-Dawley, rat, plasma, po, 4 mg/kg, 2-Br-LSD 4 mg/kg oral, male SD rats, mean of 3

## CCN(CC)C(=O)[C@@H]1C=C2c3cccc4[nH]c(Br)c(c34)C[C@H]2N(C)C1 [Example 2-Br-LSD, (6aR,9R)-5-bromo-N,N-diethyl-7-methyl-6,6a,8,9-tetrahydro-4H-indolo[4,3-fg]quinoline-9-carboxamide]
[1]
  AUC0-inf: 269 ng·h/mL and 308 ng·h/mL
  AUC0-last: 268 ng·h/mL and 304 ng·h/mL
  Cmax: 658 ng/mL and 500 ng/mL
  Tlast: 4.00 h
  T½: 37.7 min and 44.8 min
2-Br-LSD 1 mg/kg IV, male SD rats, mean of 3
  Tlast: 4.00 h
[2]
  AUC0-inf: 1960 ng·h/mL and 1450 ng·h/mL
  AUC0-last: 1430 ng·h/mL and 997 ng·h/mL
  Cmax: 366.0 ng/mL and 209.0 ng/mL
  Tlast: 7 h
  T½: 240 min
2-Br-LSD 4 mg/kg oral, male SD rats, mean of 3
  Tlast: 7 h
male, Sprague-Dawley, rat, plasma, iv, 1 mg/kg, AUC0-inf, 2-Br-LSD 1 mg/kg IV, male SD rat, individual animal
  AUC0-inf: 280 ng·h/mL
male, Sprague-Dawley, rat, plasma, iv, 1 mg/kg, AUC0-inf, 2-Br-LSD 1 mg/kg IV, male SD rats, mean of 3
  AUC0-inf: 286 ng·h/mL
[3]
  AUC(0-t): 278 ng·h/mL
  half-life: 44.3 min
[4]
  AUC(0-t): 283 ng·h/mL
  half-life: 42.2 min
male, Sprague-Dawley, rat, plasma, iv, 1 mg/kg, Cmax, 2-Br-LSD 1 mg/kg IV, male SD rat, individual animal
  Cmax: 577 ng/mL
male, Sprague-Dawley, rat, plasma, iv, 1 mg/kg, Cmax, 2-Br-LSD 1 mg/kg IV, male SD rats, mean of 3
  Cmax: 578 ng/mL
male, Sprague-Dawley, rat, plasma, po, 4 mg/kg, AUC0-inf, 2-Br-LSD 4 mg/kg oral, male SD rat, individual animal
  AUC0-inf: 1780 ng·h/mL
male, Sprague-Dawley, rat, plasma, po, 4 mg/kg, AUC0-inf, 2-Br-LSD 4 mg/kg oral, male SD rats, mean of 3
  AUC0-inf: 1730 ng·h/mL
[5]
  AUC(0-t): 1350 ng·h/mL
  half-life: 216 min
[6]
  AUC(0-t): 1260 ng·h/mL
  half-life: 222 min
male, Sprague-Dawley, rat, plasma, po, 4 mg/kg, Cmax, 2-Br-LSD 4 mg/kg oral, male SD rat, individual animal
  Cmax: 338 ng/mL
male, Sprague-Dawley, rat, plasma, po, 4 mg/kg, Cmax, 2-Br-LSD 4 mg/kg oral, male SD rats, mean of 3
  Cmax: 304 ng/mL
